# Values quoted from earlier work in US20180311177A1, “Therapeutic Nanoparticles Comprising A Therapeutic Agent and Methods of Making and Using Same” (Pfizer Inc., priority 2015, published 2018).
# Experiments:
# [1] = not given; remark: listed apart in the source
log P,SMILES,pKa [1]
4.25,CCCCCCCCCCCCN [dodecylamine],10.21
2.89,"c1ccc(CNCCNCc2ccccc2)cc1 [N,N′-dibenzylethylenediamine]",

SMILES,log P,pKa [1]
c1ccc(CCNCc2ccccc2)cc1 [N-(phenylmethyl)benzeneethanamine],3.54,9.88
